Source: patent publication US11142524B2, “Substituted-3H-imidazo[4,5-c]pyridine and 1H-pyrrolo[2,3-c]pyridine series of novel Ectonucleotide Pyrophosphatase/Phosphodiesterase-1 (ENPP1) and stimulator for interferon genes (STING) modulators as cancer immunotherapeutics” (Stingray Therapeutics, Inc., priority 2018, dated 2021)
One block for each compound: values may come before it.

Columns and labels:
ENPP1 protein [1] = target: T1, ENPP1 protein (Homo sapiens (Human), UniProt P22413); test: ENPP1 Inhibition Assay (thymidine 5′-monophosphate p-nitrophenol ester substrate); assay type: biochemical
Protocol: Assay Buffer: 1 mM CaCl2, 0.2 mM ZnCl2, 50 mM Tris, pH 9.0. Substrate: 8 mM Thymidine 5′-monophosphate p-nitrophenol ester sodium salt (Sigma Cat #T4510). Enzyme: 5 ng/L Recombinant Human ENPP-1 Protein (R&D Cat #6136-EN-010) in DMSO in 96-well clear assay plates
(§1) An eight point serial dilution of drugs was prepared in 10× in assay buffer with the final assay concentrations starting at 10 μM, 3 μM, 1 μM, 0.3 μM . . . 0 μM. A dilution of DMSO was included as a control. The assay plate was set up as follows with each well in duplicate: 81 μL assay buffer+10 μL ENPP1 inhibitor or DMSO+5 μL Substrate+4 μL Enzyme. Both the enzyme and substrate were added to opposite sides of the well to ensure that there was no interaction until all wells had both components. The plate was then centrifuged gently for 10 seconds, followed by an incubation at 37° C. for 45 minutes. The reaction was quantified by measuring absorbance at 405 nm using the Envision.
(§2) IC50 values are determined using GraphPad Prism 5 software. The data were entered as an X-Y plot into the software as percent inhibition for each concentration of the drug. The concentration values of the drug were log transformed and the nonlinear regression was carried out using the “sigmoidal dose-response (variable slope)” option within the GraphPad software to model the data and calculate IC50 values. The IC50 values reported are the concentration of drug at which 50% inhibition was reached.

Saos-2 Cells = test: ENPP1 Mineralization Assay; assay type: cell-based; conditions: FIG. 4, normalized against DMSO control
Protocol: Saos-2 Cells (ATCC CAT #HTB-85). Culture Medium. 24-well Tissue Culture Plate. Ascorbic Acid, 5 mg/mL (100×). β-Glycerophosphate, 1M (100×). Phosphate Buffered Saline. Alizarin Red, 40 mM pH 4.2. 70% Ethanol. Dye Extraction Reagent, 10% Methanol+10% Acetic Acid
Saos-2 cells were plated at a density of 1.5×10^6 cells/well and allowed to grow to 100% confluency over the following 1-2 days. Once completely confluent, the media was replaced with fresh media supplemented with 1× ascorbic acid, 1× β-glycerophosphate, and varying concentrations of ENPP1 inhibitor (if applicable). The addition of the mineralization components was considered Day 1. On Day 3, the media was gently aspirated with no wash followed by the addition of fresh media, mineralization components, and ENPP1 inhibitor (if applicable). On day 5, the media was gently aspirated and the cells were washed twice with PBS. The cells were then fixed with ice cold 70% ethanol for 1 hour at 4° C. Cells were washed once with PBS and stained with Alizarin Red for 30 minutes at room temperature with gentle rotation. Stained cells were washed three times with water for 10 minutes at room temperature with gentle rotation. After imaging cells, dye extraction reagent was added to each well and incubated for 30 minutes at room temperature. Alizarin red was quantified by measuring absorbance at a wavelength of 405 nm using the Envision.
FIG. 9 depicts a picture of results of a similar SAOS-2 mineralization assay. SAOS-2 cell were cultured in the presence and absence of ENPP1 inhibitor (compound 78, 107-02 or 108) and exposed to mineralization components for 3 days.

ENPP1 protein [2] = target: T1, ENPP1 protein; test: ENPP1 Thermal Shift Assay (Example 1); assay type: binding
Protocol: Assay Buffer (1 mM CaCl2, 0.2 mM ZnCl2, 50 mM Tris, pH 9.0) 5000×SYPRO Orange (ThermoFisher cat #S6651) 384-well PCR Plates
Each drug was prepared as a 10× solution in the assay buffer and SYPRO Orange was diluted to 10× concentration in water. Wells were set up in duplicate in a 384-well PCR plate as follows: 14 μL assay buffer, 2 μL ENPP1 Inhibitor or DMSO, 2 μL (0.5 μg) ENPP1 protein. Each well was mixed and incubated on ice for 5 minutes. Post incubation, 2 μL of SYPRO Orange was mixed into each well and followed by a gentle centrifugation. The protein melt reaction was run using ViiA7 software with temperatures beginning at 25° C. and increasing by 0.05° C./s to the maximum temperature of 99° C.
In a 384-well plate, 1.0 μg of ENPP1 protein incubated with 100 μM of the corresponding drug for 5 minutes. Each well exposed to increasing temperatures to determine an unfolding temperature of the protein.

[3] = target: Recombinant Human ENPP-2/Autotaxin Protein (Homo sapiens (Human), UniProt Q13822); test: ENPP2 Inhibition Assay; assay type: biochemical
Protocol: Assay Buffer: 10 mM CaCl2, 5 mM MgCl2, 50 mM Tris, 0.02% Brij-35, pH 8.5. Substrate: 2 mM Bis(p-Nitrophenyl) Phosphate Sodium Salt (Sigma Cat # N3002). Enzyme: 0.2 ng/μL Recombinant Human ENPP-2/Autotaxin Protein (R&D Cat #5255-EN), PF-3080 in DMSO in 96-well clear assay plates
as §1, with “15” for “81”, “DMSO+50” for “DMSO+5”, “Substrate+25” for “Substrate+4”
as §2

CT26 tumor = CT26 tumor growth inhibition study; assay type: in vivo; conditions: 30 mg P.O. QD, FIG. 14
B16F10 tumor = test: Anti-tumor efficacy in B16F10 (melanoma) syngeneic model; assay type: in vivo, C57BL/6 mice
Source text: Animals: Female C57BL/6 (4-6 week's age from Taconic).
The B16F10 cells were propagated in DMEM cell culture medium containing 10% Fetal Bovine Serum. Cells were harvested in logarithmic growth phase and implanted subcutaneously ([…]) in the lower abdomen of mice. Tumor growth was monitored daily and after the tumors had reached 80 to 100 mm3, mice were randomized into groups consisting of 8 animals per group. Animals were euthanized when tumors reached around 2000 mm^3 or treatment regime completed or 20% of body weight loss, or developed ulceration and necrosis. Upon termination, tumor samples and blood were collected and analyzed for biomarkers.

MDA-MB-468 = test: Chou-Talalay Synergy Study with Olaparib, MDA-MB-468; assay type: cell-based; conditions: MDA-MB-468, 72 hours
Protocol: Cell Lines: MDA-MB-468 and UWB289.1 (ATCC). Cell Titer Glo (Promega cat #: G7572). 96-well TC treated, white assay plates
Cells were cultured according to ATCC tissue culture recommendations. Cells were plated in a 96-well tissue culture plate at a density of 1500 cells/well and allowed to settle overnight. The following day, both drugs were prepared at 10× concentration in the following ratios (Compound 22:Olaparib): 1:1, 10:1, and 1:10. The drugs were serially diluted to create an 8-point dose curve and 10 μL of each drug was added to the cells for a total volume of 100 μL/well. Plates were placed in a tissue culture incubator for 72 hours. Following incubation, each plate was treated with Cell Titer Glo according to vendor recommendation and luminescence was measured with the Envision Plate Reader. Data was analyzed using CalcuSyn software according to the methods described in Chou, Drug combination studies and their synergy quantification using the Chou-Talalay method, Cancer Res. 2010 Jan. 15; 70(2):440-6.
A Combination index (CI) value greater than 1 indicates […], equal to 1 indicates additive and less than 1 indicates synergy.

T1 sequence (P22413 whole entry, looked up, change not shown): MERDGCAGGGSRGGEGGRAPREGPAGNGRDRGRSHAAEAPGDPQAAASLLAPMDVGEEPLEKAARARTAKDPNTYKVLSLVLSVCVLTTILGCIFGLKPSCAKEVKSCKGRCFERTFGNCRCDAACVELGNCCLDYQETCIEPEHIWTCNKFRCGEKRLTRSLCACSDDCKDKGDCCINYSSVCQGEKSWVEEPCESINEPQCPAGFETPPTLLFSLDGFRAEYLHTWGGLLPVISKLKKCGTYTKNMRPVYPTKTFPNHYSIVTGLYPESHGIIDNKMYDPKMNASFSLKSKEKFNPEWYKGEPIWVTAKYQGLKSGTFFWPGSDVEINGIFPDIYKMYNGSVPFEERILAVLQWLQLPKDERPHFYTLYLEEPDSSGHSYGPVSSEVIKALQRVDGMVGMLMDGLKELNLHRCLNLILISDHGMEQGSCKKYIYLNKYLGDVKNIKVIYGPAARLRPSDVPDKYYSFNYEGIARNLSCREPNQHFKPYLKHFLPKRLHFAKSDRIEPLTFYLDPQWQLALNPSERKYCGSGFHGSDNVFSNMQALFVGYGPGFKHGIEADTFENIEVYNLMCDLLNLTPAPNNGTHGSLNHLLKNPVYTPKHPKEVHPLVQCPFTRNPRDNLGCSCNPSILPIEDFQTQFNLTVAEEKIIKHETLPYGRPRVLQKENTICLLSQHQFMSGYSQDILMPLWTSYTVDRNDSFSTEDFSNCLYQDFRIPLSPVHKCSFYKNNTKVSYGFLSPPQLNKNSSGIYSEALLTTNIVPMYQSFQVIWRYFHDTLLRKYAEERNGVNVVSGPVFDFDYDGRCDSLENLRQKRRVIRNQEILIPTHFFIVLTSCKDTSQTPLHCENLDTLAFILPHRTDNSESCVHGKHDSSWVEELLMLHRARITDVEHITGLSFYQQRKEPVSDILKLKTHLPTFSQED

inhibiting the activity of ENPP1 (ENPP1 protein [1]; FIG. 1): effective | IC50 (ENPP1 protein [1]; Table 1, FIG. 1, read-out: IC50): 86.8 nM | increasing the stability of recombinant ENPP1 protein (ENPP1 protein [2]; FIG. 3): effective | Tm (midpoint of the protein unfolding transition) of ENPP1 (ENPP1 protein [2]; FIG. 3, ENPP1 alone 64.2° C.): 67.84 °C | selective at inhibiting ENPP1 but not ENPP2 [3]: selective | inhibiting the activity of ENPP2 ([3]; FIGS. 2A and 2B): ineffective
Structure (SMILES): COc1ccc(NC(=O)CSc2nc3cc(Cl)ncc3[nH]2)cc1O [Compound 21, 2-((6-chloro-3H-imidazo[4,5-c]pyridin-2-yl)thio)-N-(3-hydroxy-4-methoxyphenyl) acetamide]
inhibiting ENPP1 ability to produce mineralized nodules (Saos-2 Cells): effective

Tm (° C.) (ENPP1 protein [2]; Table 2, FIG. 7, 100 μM drug, 1.0 μg ENPP1, NT 60.05): 61.37 °C | ΔTm at 100 µM (ENPP1 protein [2]; Table 2, FIG. 7, 100 μM drug, 1.0 μg ENPP1, read-out: ΔTm (° C.)): 1.32 °C
Structure (SMILES): COc1cc(NC(=O)CSc2nc3cc(Cl)ncc3[nH]2)ccc1O [Compound 22, 2-((6-chloro-3H-imidazo[4,5-c]pyridin-2-yl)thio)-N-(4-hydroxy-3-methoxyphenyl) acetamide]
CT26 tumor growth inhibition (CT26 tumor): 39% | B16F10 tumor growth inhibition (B16F10 tumor; 30 mg/kg dose (FIG. 6A / FIG. 13A)): 28% | B16F10 tumor growth inhibition (B16F10 tumor; FIG. 6B / FIG. 13B, dose and route not stated): 27%

Structure (SMILES): O=C(c1cc(Cc2n[nH]c(=O)c3ccccc23)ccc1F)N1CCN(C(=O)C2CC2)CC1 [Olaparib]
ED50 Drug Concentration Olaparib (MDA-MB-468): 185065 nM
